The test system of data set [1] is several mammalian cell types. Particulars: energy-independent manner; cited from earlier work.
Data set [2] has as its system mouse tongue tumors induced by 4-NQO. As to the kind of experiment: 4-NQO mouse model: histological diagnosis of squamous neoplasia on H&E stained tongue sections. It counts as in vivo, mouse (C57BL/6). Particulars: 4-NQO 10 weeks, then peptide 2.5 mg/kg/day s.c. 2 days/week for 15 weeks; four mice per group; 75% in 4-NQO+saline; p=0.07. As to the method: (§1) Six-week old wild-type C57BL/6 female mice (purchased from the Jackson Laboratory) were used for this study. The mice were maintained on a normal chow (Lab-diet with constant nutrition, Lab-Diet Co, St. Louis, Mo.) and under controlled conditions with a 12 hour light/dark cycle. The mice were randomly divided into an experimental group in which mice received drinking water that contained 100 μg/ml 4-nitroquinoline 1-oxide (4-NQO) (Sigma, St. Louis, Mo.) and a control group in which mice received drinking water that contained propylene glycol (vehicle for 4-NQO). The treatment lasted for 10 weeks after which the mice received regular drinking water. […] Mouse body weights and precancerous and cancerous lesions were monitored in the oral cavities at different times for up to 15 weeks, or until signs of sickness or weight loss. […]
(§2) Tissue dissection, lesion grade measurement, and pathological diagnosis. […] Gross lesions were identified and photographed, and visible cancerous lesions on the tongues were counted. The multiplicity of lesions (number of lesions per mouse) was assessed with a 10× magnification. The severity of gross lesions on the tongues was quantified by a grading system that included 0 (no lesion), 1 (mild lesion), 2 (intermediate lesion), 3 (severe lesion), and 4 (most severe lesion) in a double blinded manner. […]

Data set [3] has the same test system. As to the kind of experiment: 4-NQO mouse model of oral carcinogenesis: gross tongue lesion multiplicity and severity grading. The format is in vivo, mouse (C57BL/6). As to the method:
A mouse model of oral squamous cell carcinomas or oral cancers was developed by exposing the animals to the carcinogen 4-nitroquinoline 1-oxide (4-NQO) via drinking water.
Six-week old wild-type C57BL/6 female mice (purchased from the Jackson Laboratory) were used for this study. The mice were maintained on a normal chow (Lab-diet with constant nutrition, Lab-Diet Co, St. Louis, Mo.) and under controlled conditions with a 12 hour light/dark cycle. […] Mouse body weights and precancerous and cancerous lesions were monitored in the oral cavities at different times for up to 15 weeks, or until signs of sickness or weight loss. […]
as §2

Data set [4] deals with PTGS2. Put plainly: Immunohistochemistry of mouse tongue sections for PTGS2 (Cox-2). The format is in vivo, mouse (C57BL/6). As to conditions: 4-NQO + peptide vs 4-NQO+saline; four mice per group. The protocol: as §1
(§3) Immunohistochemistry. […] The sections were incubated with secondary antibodies (1:200, anti-mouse IgG from the M.O.M kit for p16; ready to use anti-rabbit IgG from the Invitrogen SuperPicture kit for Cox-2; and ready to use anti-mouse IgG from the Dako Envision™ HRP (DAB+) kit for mouse PCNA). […] Four to five representative areas of each mouse tongue section were photographed and analyzed.

Data set [5] relates to p16. Put plainly: Immunohistochemistry of mouse tongue sections for p16. The format is in vivo, mouse (C57BL/6). Particulars: peptide injections after 4-NQO treatment vs 4-NQO+saline; four mice per group. The protocol:
as §1, §3

In data set [6] the test system is PCNA. As to the kind of experiment: Immunohistochemistry of mouse tongue sections for PCNA. Particulars: 4-NQO + peptide vs 4-NQO+saline; tongue regions with and without visible lesions; four mice per group. The format is in vivo, mouse (C57BL/6). As to the method:
as §1, §3

Take 2′,6′-Dmt-D-Arg-Phe-Lys-NH2: in data set [1], the “penetration of the plasma membrane” value is given as “readily penetrates the plasma membrane”.

D-Arg-2′,6′-Dmt-Lys-Phe-NH2: the “percentage of mice that developed severe dysplasia, carcinoma in situ, and invasive carcinoma” value in data set [2] came out at 25%. In addition, the “average number of cancerous tongue lesions per mouse (multiplicity)” value in data set [3] (4-NQO 100 μg/ml in drinking water 10 weeks, then peptide 2.5 mg/kg/day s.c. on 2 days each week for 15 weeks, 10 mice/group, p<0.05 vs 4-NQO+saline (6.5±2.9)) amounted to 3.3±2.2. The “percentage of less severe tongue lesions of grades 0-2” value in data set [3] (4-NQO 10 weeks, then peptide 2.5 mg/kg/day s.c. 2 days/week for 15 weeks, grading 0-4, p<0.05 vs 4-NQO+saline (Fisher's exact test)) is recorded as 100%. Moreover, the “PTGS2 protein levels in tongues” value in data set [4] is on record as “greatly reduced levels in PTGS2 protein”. Also, the “p16 protein levels in tongue epithelium” value in data set [5] was “greatly limited the 4-NQO-induced decrease in p16 protein levels”. Besides, the “PCNA positive cells in tongue epithelium” value in data set [6] is given as “obvious lower numbers of PCNA positive cells”.
